Measured values reported in patent publication US20230053688A1, “METHODS TO ALTER LATENCY IN EBV+ MALIGNANCIES” (Cornell University, priority 2020, published 2023).

How the values were obtained:
[1] = system: LMP1 and Cp transcripts in Kem I, Mutu I, and Rael cell lines; assay type: cell-based, EBV
[2] = system: LMP1 and EBNA3C proteins in BL cells; experiment: Immunoblot for viral proteins in BL cells; assay type: cell-based, EBV; conditions: 48 hours
Experimental: Immunoblot was performed with the standard procedure using the following antibodies: β-actin (GeneTex), BZLF1 (Santa Cruz), EBNA1 (Santa Cruz), EBNA2 (AbCam), EBNA3C (gift from Benjamin Gewurz), GAPDH (GeneTex), and LMP1 (AbCam).
Since decitabine and 5-azacytadine were the top hits on the epigenetic screen, the effect of these agents on latency II/III transcript and protein expression was investigated as well as the dose-response in a panel of BL cell lines. BL cells were treated with decitabine or 5-azacytidine over a range of doses. Viral antigen expression was evaluated by qRT-PCR, immunoblot, and immunohistochemistry. […] This was associated with upregulation of LMP1 and EBNA3C proteins (FIG. 2B).

[3] = system: EBNA2 and LMP1 in Kem I cells; experiment: Immunohistochemistry on cell blocks with HALO quantification; assay type: cell-based, EBV; conditions: decitabine at 500 nM, 48 hours
Experimental: (§1) Cell blocks were generated from cell lines in suspension by fixation in 10% formalin. Immunohistochemistry on cell blocks and mouse tumors was performed with the following antibodies: EBNA2 (abcam #ab90543), LMP1 (Dako #M0897), BZLF1 (Santa Cruz #SC-53904), CD8 (Leica #PA0183), PD-1 (Dako #M3653), PD-L1 (Cell Marque #315M-98). The Halo® image analysis software program (Indica Labs) was used to quantify immunohistochemical stains.
(§2) Next it was determined the percentage of cells that convert to expressing latency […] antigens after treatment with decitabine or 5-azacytadine. To do this, EBV antigen expression at the single-cell level was evaluated by immunohistochemistry (IHC) from cell blocks. Cells were treated with 5-azacytidine, decitabine, or vehicle control. Cell blocks were then evaluated by IHC for LMP1 and EBNA2. The percentage of positive cells was quantified with HALO image analysis. […] 5-azacytidine induced a more modest expression of EBNA2 and LMP1 across the three cell lines (FIGS. 2E-F). Based on these observations, decitabine was further investigated as a potential agent to induce expression of immunogenic viral antigens in latency I tumors.

[4] = system: EBNA2 and LMP1 in Mutu I cells; experiment: as above; assay type: cell-based, EBV; conditions: decitabine at 500 nM, 48 hours
Experimental: as §1, §2

[5] = system: EBNA2 and LMP1 in Rael cells; experiment: as above; assay type: cell-based, EBV; conditions: decitabine at 500 nM, 48 hours
Experimental: as §1, §2

Kem I xenografts = experiment: BL xenograft, immunohistochemistry of tumors for viral antigens; assay type: in vivo, mice
Experimental: as §1
(§3) To evaluate the effect of decitabine on viral antigen expression in-vivo, we generated Mutu I, Kem I, and Rael xenografts. Upon engraftment, mice were treated with a 7-day course of decitabine (0.5 mg/kg or 1 mg/kg daily) or vehicle control. After treatment tumors were evaluated by immunohistochemistry. Vehicle treated mice had minimal or no expression of EBNA2 and LMP1 (FIGS. 3A-B). […] LMP1 expression was increased in Kem xenografts (p=0.04, FIG. 3B).
(§4) In addition to modulating latent gene expression, 5-azacytidine is known to activate lytic programming in EBV (Bhende, Seaman et al. 2004, Chan, Tao et al. 2004, Bergbauer, Kalla et al. 2010, Kalla, Gobel et al. 2012, Woellmer, Arteaga-Salas et al. 2012). Upon exposure to 5-azacytidine, the Rael cell line generates lytic and latent antigens but in distinct cell populations (Masucci, Contreras-Salazar et al. 1989). To determine if the lytic program was being activated after exposure to decitabine qRT-PCR was performed for BZLF1, the gene responsible for activating early lytic genes in Rael, Mutu I, and Kem I cells. […] In the xenograft models, BLZF1 was evaluated by IHC.

Mutu I xenografts = experiment: as above; assay type: in vivo, mice
Experimental: as §1, §3, §4

Rael xenografts = experiment: as above; assay type: in vivo, mice
Experimental: as §1, §3
If induction of immunogenic antigens were to be used as therapeutic approach in EBV+ lymphomas, it would be important to ensure that the induction persists after removal of drug to allow time for an adequate T-cell response. The durability of latency III induction was evaluated by treating cell lines with 250 nM of decitabine for 3 days and then evaluating LMP1 and Cp promoter expression after washout of the drug. […] Rael xenografts were also evaluated for durability of induction in-vivo. […] Mice observed at later timepoints continued to express EBNA2 with some areas of tumor remaining EBNA2 positive as late as 63 days post-treatment (FIG. 4C).
In addition to modulating latent gene expression, 5-azacytidine is known to activate lytic programming in EBV (Bhende, Seaman et al. 2004, Chan, Tao et al. 2004, Bergbauer, Kalla et al. 2010, Kalla, Gobel et al. 2012, Woellmer, Arteaga-Salas et al. 2012).

[6] = system: BZLF1 in Rael, Mutu I, and Kem I cells; experiment: qRT-PCR for BZLF1 (lytic induction); assay type: cell-based, EBV; conditions: all three cell lines
[7] = system: EBV genome in Kem I, Rael, and Mutu I cells; experiment: Quantitative DNA methylation analysis using MassARRAY EpiTYPER; assay type: cell-based; conditions: 48 hours, all three latency I cell lines, including Cp promoter and LMP1/2 loci
[8] = system: first 13 kB of the EBV genome in Kem I, Rael, and Mutu I cells; experiment: Methyl-Capture sequencing of cell lines; assay type: cell-based
Rael cells = experiment: Cr51 release assay with EBV-CTLs; assay type: cell-based; conditions: Rael cells treated at 250 nM for 72 hours, 25:1 effector to target ratio
Mutu I cells = experiment: Cr51 release assay with EBV-CTLs; assay type: cell-based; conditions: Mutu I cells treated at 250 nM for 72 hours, 25:1 effector to target ratio
[9] = system: subcutaneous xenografts of Rael cells; assay type: in vivo, NSG mice
in vitro [10] = conditions: human, Mutu I cells
Experimental: (§5) Cell viability was determined using CellTiter-Glo (Promega) and the GloMax® Multi+ detection system (Promega).
(§6) Cell viability was determined using an ATP based luminescent assay (CellTiter-Glo, Promega) and the GloMax® Multi+ detection system (Promega). IC50 values were calculated using Prism 6 software.
(§7) To determine if induction of LMP1 and EBNA3 were linked to hypomethylating agent-induced cell death, cells were exposed to decitabine or 5-azacytadine over a range of doses and cell viability evaluated with the ATP-based Cell Titer-Glo® assay.

in vitro [11] = conditions: human, Rael cells
Experimental: as §5, §6, §7

Mutu I = experiment: Cell viability, CellTiter-Glo; conditions: read-out: 48 Hour IC50
Experimental: as §5, §6, §7

[12] = Cell viability, CellTiter-Glo; conditions: human, Kem I cells
Experimental: as §5, §6, §7

Kem I = experiment: Cell viability, CellTiter-Glo; conditions: 48 h, read-out: 48 Hour IC50
Experimental: as §5, §6, §7

Rael = experiment: Cell viability, CellTiter-Glo; conditions: read-out: 48 Hour IC50
Experimental: as §5, §6, §7

BL cells = experiment: Cell viability, CellTiter-Glo, statements for the BL cell panel
Experimental: as §5, §6, §7

Nc1ncn([C@H]2C[C@H](O)[C@@H](CO)O2)c(=O)n1 [decitabine, 5-aza-2′-deoxycytidine]
LMP1 and Cp expression by qRT-PCR after washout ([1]; 250 nM for 3 days, then 1, 3, 5, and 7 days after washout): persists with minimal decrement | lowest dose with dose dependent induction of LMP1 and Cp transcripts ([1]; BL cells, 48 hours of treatment): 25 nM | LMP1 and EBNA3C proteins (immunoblot) [2]: upregulation | percentage of EBNA2 positive cells [3]: 57.8% | percentage of LMP1 positive cells [3]: 54.9% | percentage of EBNA2 positive cells [4]: 28.3% | percentage of LMP1 positive cells [4]: 41.8% | percentage of EBNA2 positive cells [5]: 37.2% | percentage of LMP1 positive cells [5]: 27.4% | LMP1 expression in tumors (IHC) (Kem I xenografts; 7-day course, 0.5 mg/kg or 1 mg/kg daily IP, p=0.04): increased | BZLF1 by IHC in tumors (Kem I xenografts; Kem I xenograft, 7 days of treatment): minimal or no induction | EBNA2 expression in tumors (IHC) (Mutu I xenografts; 7-day course, 0.5 mg/kg or 1 mg/kg daily IP, p=0.044): upregulation was observed | BZLF1 by IHC in tumors (Mutu I xenografts; Mutu I xenograft, 7 days of treatment): induction was observed | EBNA2 expression in tumors (IHC) (Rael xenografts; 7-day course, 0.5 mg/kg or 1 mg/kg daily IP, p=0.017): upregulation was observed | BZLF1 by IHC in tumors (Rael xenografts; Rael xenograft, 7 days of treatment): minimal or no induction | latest time with areas of tumor remaining EBNA2 positive (Rael xenografts; post-treatment): 63 days | percentage of EBNA2 positive cells after discontinuation of drug (Rael xenografts; tumors evaluated 4 days after a 7-day course): persistent induction with no decrement | BZLF1 (qRT-PCR) over time after removal of drug [6]: decreased over time after removal of drug | BZLF1 (qRT-PCR) ([6]; after exposure for 72 hours): increase | DNA methylation across the EBV viral genome (MassARRAY) [7]: loss of methylation | methylation across the covered areas (Methyl-Capture sequencing) ([8]; after treatment, all three cell lines): global hypomethylation | methylation after removal of drug (Methyl-Capture sequencing) ([8]; drug 48 hours followed by 7-day washout): remained hypomethylated | % lysis by EBNA3C reactive EBV-CTLs (Rael cells): 26.07% | % lysis by EBNA3A reactive EBV-CTLs (Mutu I cells): 16.17% | % lysis by LMP1-reactive EBV-CTLs (Mutu I cells): 74.11% | latent antigens EBNA2 and LMP1 in tumors ([9]; daily for 7 days, 1 mg/kg): induction | lytic protein BZLF1 in tumors ([9]; daily for 7 days, 1 mg/kg): minimal change | PD-L1 expression in tumors ([9]; mouse, in vivo): did not increase | viability (in vitro [10]): 62% | viability (in vitro [11]): 102% | IC50 (Mutu I): > 5 µM | viability [12]: 128% | IC50 (Kem I): > 5 µM | IC50 (Rael): > 5 µM | IC50 (BL cells): > 5 µM
